Measurements: paper PMC11802738 (Nature Communications, 2025)

How the values were obtained:
[1] = biological target: T1, RgNanH (GRAB-Sia3 = RgNanH D282A) (Mediterraneibacter gnavus, UniProt A7B557, D282A); assay: isothermal titration calorimetry; assay type: binding; conditions: PBS; 50 μM protein in cell, 1 mM ligand in syringe; monomeric GRAB-Sia3
T1 sequence (A7B557 243-723 D282A): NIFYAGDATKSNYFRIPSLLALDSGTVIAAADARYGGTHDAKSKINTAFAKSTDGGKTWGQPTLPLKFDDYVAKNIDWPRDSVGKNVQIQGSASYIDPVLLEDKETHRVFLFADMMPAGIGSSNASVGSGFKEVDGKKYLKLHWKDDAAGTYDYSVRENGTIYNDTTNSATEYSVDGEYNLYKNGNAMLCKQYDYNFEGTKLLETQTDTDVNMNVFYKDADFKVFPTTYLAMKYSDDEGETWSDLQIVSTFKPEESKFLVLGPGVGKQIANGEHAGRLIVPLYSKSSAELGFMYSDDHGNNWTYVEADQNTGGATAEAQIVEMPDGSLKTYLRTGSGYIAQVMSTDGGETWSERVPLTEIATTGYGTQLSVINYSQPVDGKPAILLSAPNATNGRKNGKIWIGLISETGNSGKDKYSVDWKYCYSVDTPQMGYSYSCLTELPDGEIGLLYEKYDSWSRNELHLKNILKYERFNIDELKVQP

[2] = biological target: SpNanA (GRAB-Sia = SpNanA D372N) (Streptococcus pneumoniae, UniProt P62576, D372N); conditions: PBS; 50 μM protein in cell, 1 mM ligand in syringe; monomeric GRAB-Sia

Compound | Kd [1] | Kd [2]
CC(=O)N[C@H]1[C@H]([C@H](O)[C@H](O)CO)O[C@@](O[C@H]2[C@@H](O)[C@@H](CO)O[C@@H](O[C@H]3[C@H](O)[C@@H](O)C(O)O[C@@H]3CO)[C@@H]2O)(C(=O)O)C[C@@H]1O (stereo partly drawn) [3′SL] | 7.15 µM | 17.8 µM
CC(=O)N[C@H]1[C@H]([C@H](O)[C@H](O)CO)O[C@@](OC[C@H]2O[C@@H](O[C@H]3[C@H](O)[C@@H](O)C(O)O[C@@H]3CO)[C@H](O)[C@@H](O)[C@H]2O)(C(=O)O)C[C@@H]1O (stereo partly drawn) [6′SL] |  | 19.1 µM
